Experimental data reported in patent US20250241328A1, “REDUCTANT TREATMENT METHODS FOR FOOD PRODUCT PRECURSORS” (Impossible Foods Inc., priority 2022, published 2025).

Tests used:
[1] = Colorimetric properties (L*c*h) of LegH Prep after HTST; type: physicochemical; conditions: HTST 20 seconds, 68-72° C.
Method: This color decline is due to LegH denaturation as well as potentially off-color formation produced by Pichia proteins in response to heat. […] FIG. 6 was performed at 15 mM cysteine, a temperature of 65° C., and a duration of 20 seconds. Performing HTST in the presence of cysteine results in less change in both chroma and hue angle show a decrease after HTST compared to performing HTST in the absence of cysteine.

LegH = molecular target: T1, LegH (Glycine max, UniProt P02236); test: LegH concentration after HTST of LegH Prep by UPLC (thermostability); type: physicochemical, soy; conditions: HTST 20 seconds, 68-72° C.
T1 construct: made in house; host or cells: Pichia
Method: This decrease in concentration is due to LegH aggregating or denaturing in response to heat. […] For UPLC, there is a resolved peak at the LegH retention time that can be tracked by 415 nm absorbance but the integration is performed on the 280 nm peak at that position.

[2] = system: aerobic plate count (gram negative and gram positive bacteria); test: Refrigerated shelf-life study of HTST-treated soy leghemoglobin, aerobic plate count; type: cell-based; conditions: HTST-treated soy leghemoglobin (LegH)
Excerpt: APC captures both gram negative and gram positive bacteria, whereas lactic acid bacteria (LAB) captures gram positive bacteria (FIG. 1B).

bacterial bioburden = test: Bacterial bioburden of heme samples following HTST treatment; type: cell-based; conditions: 15 mM and 35 mM cysteine, heme samples at pH 9.5
Listeria = test: Pathogen reduction during HTST in leghemoglobin samples; type: cell-based; conditions: cysteine treatment during HTST
Excerpt: (§1) Salmonella and E. coli are gram negative bacteria, and Listeria is gram positive. Addition of cysteine reduced the CFU/g of E. coli even in the absence of heat.
(§2) FIGS. 2A, 2B, and 2C are tables showing the reduction of pathogens in leghemoglobin samples with and without cysteine.

E. coli = test: as above; type: cell-based
Excerpt: as §1, §2

Salmonella = test: as above; type: cell-based; conditions: cysteine treatment during HTST
Excerpt: as §1, §2

[3] = Percent suspended solids after HTST of LegH Prep; type: physicochemical; conditions: HTST 20 seconds, 68-72° C.
Excerpt: Suspended solid formation is likely due to aggregation or denaturation of the Pichia proteins within LegH Prep in response to heat. […] Increased suspended solids changes the physical properties of the protein solution and are typically associated with increased viscosity.

T1 sequence (P02236 whole entry): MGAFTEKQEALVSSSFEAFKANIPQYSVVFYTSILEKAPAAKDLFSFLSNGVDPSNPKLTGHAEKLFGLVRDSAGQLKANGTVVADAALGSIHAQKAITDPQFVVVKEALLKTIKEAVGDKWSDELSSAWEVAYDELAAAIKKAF

## N[C@@H](CS)C(=O)O [cysteine, L-cysteine]
[1]
  decline in L*c*h after HTST: diminished in a dose-dependent manner
LegH
  decrease in LegH concentration after HTST: diminished in a dose-dependent manner
[2]
  aerobic plate count (APC) stability: cysteine-dependent increase
Bacterial bioburden
  bacterial bioburden CFU/g following HTST treatment: decreases bacterial bioburden
Listeria
  CFU/g reduction of Listeria: significantly increased
E. coli; cysteine treatment during HTST
  CFU/g reduction of E. coli: significantly increased
E. coli; in the absence of heat
  CFU/g of E. coli: reduced
Salmonella
  CFU/g reduction of Salmonella: significantly increased
[3]
  increase in percent suspended solids (% SS) after HTST: diminished in a dose-dependent manner
